Several values for one entry are separate records, joined by “and”; a condition that tells them apart may be missing. Identical values can stand only once.
Experiments:
[1] = tested on: murine dispersed islet cells; test: Insulin secretion from murine dispersed islet cells; format: cell-based, mouse; conditions: for Relative secretion of insulin: one value per mouse
Experimental: (§1) Pancreata of nondiabetic C57BL/6J mice were digested using collagenase P (Roche Diagnostics, catalog 11213873001), and islets were manually picked up using a stereomicroscope (ZEISS Stemi 305). […] Isolated mouse islets or provided human islets were dispersed as described ([28]). Briefly, 100–120 islets were washed 2 times using modified HBSS, then dispersed in 600 μL Accutase (Innovative Cell Technologies, catalog AT-104) by gently pipetting up and down for 7 minutes at 37°C. […] Following refreshing of KRBH, cells were dispensed in 8 microfuge tubes (2,000 cells/tube) and treated with WCDD301, preclustered Ephrin-A5 Fc, or preclustered Fc in the presence or absence of the competitive inhibitor of EphA4 receptor, rhyncophylline ([60]) (MilliporeSigma, catalog SML2345). In the presence or absence of these effectors, secretion assay was performed sequentially as shown in Supplemental Table 5. […] Preclustering of Ephrin-A5 Fc was done by mixing Ephrin-A5 Fc or Fc alone (BioLegend, catalog 790102) with anti-Fc antibody (Invitrogen, catalog A16086) (1:10 molar ratio) 20 minutes before treatment ([62]). […] Shedding of cleaved EphA4 was measured from the cell culture medium. Experiments were performed by dispersion of 200 islets, and EphA4 levels in media were measured by EphA4 ELISA (ABclonal, catalog RK06572).

diabetic NOD mice = test: Insulin tolerance test in NOD mice; format: in vivo, mouse; conditions: WCDD301 dosing
From the text: Following a 4-hour fast, nondiabetic placebo-treated (n = 4), diabetic placebo-treated (n = 4), and diabetic WCDD301-treated (n = 4) NOD female mice were intraperitoneally injected with insulin (Humulin-R; 0.75 U/kg, Eli Lilly and Company). […]

[2] = tested on: human donor dispersed islet cells; test: Insulin secretion from healthy human donor dispersed islet cells; format: cell-based; design: Insulin secretion: unit not given here
Experimental: as §1
The Integrated Islet Distribution Program provided us human donor islets with their characteristics (Supplemental Table 6). Islets were centrifuged at 500g for 3 minutes, resuspended in CMRL 1066 medium (Gibco, catalog 1150-037) containing 11 mM glucose, and rested in an incubator overnight.
For the hormone secretion assay, islets or dispersed islet cells were adapted in KRBH buffer containing 11 mM glucose for 1 hour. Then, after 2 washes in HBSS containing 11 mM glucose, islets or cells were treated in the following sequential order in the presence or absence of WCDD301: incubation in KRBH (1 mM glucose, 30 minutes) followed by medium collection, incubation in KRBH (11 mM glucose, 30 minutes) followed by medium collection.

[3] = tested on: α cells of NOD mice islets; test: F-actin signal in α cells of pancreatic slices of NOD mice; format: in vivo, mouse; conditions: WCDD301-treated NOD mice; diabetic 47.14 ± 4.70, nondiabetic 79.14 ± 4.63
Experimental: Pancreata of NOD mice (females, n = 3 per group) from nondiabetic, diabetic placebo-treated, and diabetic WCDD301-treated cohorts were excised; fixed in 10% buffered formalin for 5 days; and treated with ethanol 70% for 2 days before paraffin embedding. The paraffin-embedded tissue blocks were longitudinally sectioned in 5 μm slices and fixed on microscope slides. Following deparaffinization (through incubation in graded xylene, graded ethanol, and PBS), permeabilization (using 0.1% Triton X-100 in PBS), and background blocking (using 5% BSA solution containing 0.1% Tween 20), samples were incubated with primary antibodies (mouse anti-glucagon, Abcam, catalog ab10988; above-mentioned rabbit anti-EphA4), secondary antibodies (goat anti-mouse IgG Alexa Fluor 488; Invitrogen, catalog A-11001; goat anti-rabbit IgG Alexa Fluor 633, Invitrogen, catalog A-21070), SPY555-Actin (Cytoskeleton, catalog SC202), and DAPI. Image acquisition and analysis were performed as for dispersed islet cells. […] ROIs were manually drawn around each islet, background signal was removed by thresholding, and intensity of glucagon signal was determined and normalized by the islet surface area. To determine sizes of α cells per islet, ROIs were manually drawn around α cells in each islet. […]

[4] = Glucose (1 mM), WCDD301 0.75 µM
[5] = Glucose (11 mM), WCDD301 0.75 µM
[6] = Glucose (11 mM), WCDD301 1.5 µM

CC(=O)OCC(N)(COC(C)=O)COC(C)=O [WCDD301, 2-(acetoxymethyl)-2-aminopropane-1,3-diyl diacetate]
Relative secretion of insulin ([1]; 301 (1.5 µM), Glucose (1 mM), Figure 1G): 0.28 and 0.38 and 0.3 and 0.32 and 0.23
Relative secretion of insulin ([1]; 301 (1.5 µM), Glucose (11 mM), Figure 1G): 1.22 and 1.05 and 0.8 and 0.98 and 1.49
Relative secretion of insulin ([1]; 301 (3 µM), Glucose (1 mM), Figure 1G): 0.49 and 0.38 and 0.4 and 0.28 and 0.53
Relative secretion of insulin ([1]; 301 (3 µM), Glucose (11 mM), Figure 1G): 0.67 and 1.1 and 0.98 and 1.25 and 0.63
Effect on insulin secretion ([1]; Figure 1G): without significant effects
Effect on insulin secretion in presence of rhyncophylline ([1]; WCDD301 3 μM, Supplemental Figure 3): no significant effect on insulin secretion
Blood glucose in insulin tolerance test, Normalize with basal (0 min) (Figure 6E) (diabetic NOD mice; 15 min): 0.89 and 0.91 and 0.86 and 0.88
Blood glucose in insulin tolerance test, Normalize with basal (0 min) (Figure 6E) (diabetic NOD mice; 30 min): 0.67 and 0.69 and 0.65 and 0.68
Blood glucose in insulin tolerance test, Normalize with basal (0 min) (Figure 6E) (diabetic NOD mice; 45 min): 0.67 and 0.74 and 0.62 and 0.66
Blood glucose in insulin tolerance test, Normalize with basal (0 min) (Figure 6E) (diabetic NOD mice; 60 min): 0.71 and 0.73 and 0.77 and 0.72
Blood glucose in insulin tolerance test, Normalize with basal (0 min) (Figure 6E) (diabetic NOD mice; 90 min): 0.7 and 0.8 and 0.75 and 0.96
Blood glucose in insulin tolerance test, Normalize with basal (0 min) (Figure 6E) (diabetic NOD mice; 120 min): 0.89 and 0.85 and 0.9 and 0.93
Effect on insulin secretion ([2]; 1, 3 or 6 hours exposure): transient effect
Insulin secretion ([2]; 1 hour exposure, WCDD301 0.75 µM, 1 mM (first group), Figure 2D): 0.23 and 0.21 and 0.2
Insulin secretion ([2]; 1 hour exposure, WCDD301 0.75 µM, head printed 1 mM (second group c4-c7), Figure 2D): 0.277 and 0.233 and 0.25
Insulin secretion ([2]; 1 hour exposure, WCDD301 1.5 µM, 1 mM (first group), Figure 2D): 0.247 and 0.17 and 0.22
Insulin secretion ([2]; 1 hour exposure, WCDD301 1.5 µM, head printed 1 mM (second group c4-c7), Figure 2D): 0.299 and 0.278 and 0.26
Insulin secretion ([2]; 1 hour exposure, WCDD301 3 µM, 1 mM (first group), Figure 2D): 0.133 and 0.134 and 0.23
Insulin secretion ([2]; 1 hour exposure, WCDD301 3 µM, head printed 1 mM (second group c4-c7), Figure 2D): 0.196 and 0.199 and 0.27
Insulin secretion ([2]; 3 hours exposure, WCDD301 0.75 µM, 1 mM (first group), Figure 2E): 0.188 and 0.216 and 0.2
Insulin secretion ([2]; 3 hours exposure, WCDD301 0.75 µM, head printed 1 mM (second group c4-c7), Figure 2E): 0.279 and 0.305 and 0.31
Insulin secretion ([2]; 3 hours exposure, WCDD301 1.5 µM, 1 mM (first group), Figure 2E): 0.156 and 0.166 and 0.2
Insulin secretion ([2]; 3 hours exposure, WCDD301 1.5 µM, head printed 1 mM (second group c4-c7), Figure 2E): 0.227 and 0.252 and 0.3
Insulin secretion ([2]; 3 hours exposure, WCDD301 3 µM, 1 mM (first group), Figure 2E): 0.23 and 0.247 and 0.22
Insulin secretion ([2]; 3 hours exposure, WCDD301 3 µM, head printed 1 mM (second group c4-c7), Figure 2E): 0.249 and 0.253 and 0.31
Insulin secretion ([2]; 6 hours exposure, WCDD301 0.75 µM, 1 mM (first group), Figure 2F): 0.248 and 0.23 and 0.252
Insulin secretion ([2]; 6 hours exposure, WCDD301 0.75 µM, head printed 1 mM (second group c4-c7), Figure 2F): 0.383 and 0.391 and 0.37
Insulin secretion ([2]; 6 hours exposure, WCDD301 1.5 µM, 1 mM (first group), Figure 2F): 0.257 and 0.265 and 0.24
Insulin secretion ([2]; 6 hours exposure, WCDD301 1.5 µM, head printed 1 mM (second group c4-c7), Figure 2F): 0.41 and 0.395 and 0.38
Insulin secretion ([2]; 6 hours exposure, WCDD301 3 µM, 1 mM (first group), Figure 2F): 0.185 and 0.176 and 0.25
Insulin secretion ([2]; 6 hours exposure, WCDD301 3 µM, head printed 1 mM (second group c4-c7), Figure 2F): 0.327 and 0.324 and 0.4
Insulin secretion (Supplemental Figure 4A; quantity not given) [2, 4]: 14.24 and 14.812 and 14.5
Insulin secretion (Supplemental Figure 4B; quantity not given) [2, 4]: 12.664 and 13.794 and 14
Insulin secretion (Supplemental Figure 4C; quantity not given) [2, 4]: 11.67 and 7.26 and 14
Insulin secretion (Supplemental Figure 4A; quantity not given) ([2]; Glucose (1 mM), WCDD301 1.5 µM): 17.532 and 20.466 and 12
Insulin secretion (Supplemental Figure 4B; quantity not given) ([2]; Glucose (1 mM), WCDD301 1.5 µM): 15.67 and 15.802 and 13.5
Insulin secretion (Supplemental Figure 4C; quantity not given) ([2]; Glucose (1 mM), WCDD301 1.5 µM): 13.328 and 14.218 and 10
Insulin secretion (Supplemental Figure 4A; quantity not given) ([2]; Glucose (1 mM), WCDD301 3 µM): 16.564 and 14.55 and 11.5
Insulin secretion (Supplemental Figure 4B; quantity not given) ([2]; Glucose (1 mM), WCDD301 3 µM): 18.692 and 16.896 and 14
Insulin secretion (Supplemental Figure 4C; quantity not given) ([2]; Glucose (1 mM), WCDD301 3 µM): 12.61 and 13.59 and 9
Insulin secretion (Supplemental Figure 4A; quantity not given) [2, 5]: 22.29 and 19.8308 and 21
Insulin secretion (Supplemental Figure 4B; quantity not given) [2, 5]: 16.996 and 15.584 and 14.5
Insulin secretion (Supplemental Figure 4A; quantity not given) [2, 6]: 29.994 and 17.548 and 22
Insulin secretion (Supplemental Figure 4B; quantity not given) [2, 6]: 19.714 and 16.496 and 13
Insulin secretion (Supplemental Figure 4A; quantity not given) ([2]; Glucose (11 mM), WCDD301 3 µM): 17.376 and 17.746 and 23
Insulin secretion (Supplemental Figure 4B; quantity not given) ([2]; Glucose (11 mM), WCDD301 3 µM): 17.584 and 17.686 and 13
Insulin secretion (Supplemental Figure 4C; quantity not given) ([2]; Glucose (11 mM), WCDD301 3 µM): 16.66 and 13.592 and 8.5
F-actin signal within α cells [3]: 74.50 ± 4.80 AU

Reference: paper PMC10906223 (JCI Insight, 2024)
